# Where a name gives a salt, the structure may show the parent alone.
# Tests used:
# [1] = Crystal form stability by PXRD (Example 3); format: physicochemical; conditions: 40° C. and 75% relative humidity
# Description: Crystal form stability was assessed for samples of 5-[(Z)-(5-fluoro-2-oxo-1,2-dihydro-3H-indol-3-ylidene)methyl]-N-[(2S)-2-hydroxy-3-morpholin-4-ylpropyl]-2,4-dimethyl-1 H-pyrrole-3-carboxamide maleate salt, polymorph Form 1, polymorph Form 2, and a mixture of polymorph Form 1 and Form 2. In each case, a sample of the substance was placed into a controlled temperature and humidity stability chamber at 40° C. and 75% relative humidity. Samples were taken several times during the duration of the test and analyzed for qualitative changes in the PXRD patterns.
# [2] = system: solid and hematopoietic cancer xenograft models; conditions: diverse preclinical solid and hematopoietic cancer xenograft models; cited from earlier work
# hepatic cytochrome P450 = test: Metabolism in preclinical species and in human hepatocytes and microsomes; format: in vitro ADME; conditions: preclinical species (in vivo and in vitro)
# Description: The primary site of metabolism is the morpholinyl group. Three metabolites have been identified in vivo following single oral administration (100 mg/kg) to cynomolgus monkeys (FIG. 8). These 3 metabolites, which were detected at <16% relative abundance to parent in monkey plasma, were also the major products observed in human microsomes and hepatocytes. Relative abundance was determined from monkey plasma following a single dose of 5-[(Z)-(5-fluoro-2-oxo-1,2-dihydro-3H-indol-3-ylidene)methyl]-N-[(2S)-2-hydroxy-3-morpholin-4-ylpropyl]-2,4-dimethyl-1H-pyrrole-3-carboxamide (100 mg/kg) and based on (AUC0-12 metabolite/AUC0-12 parent)×100, estimated from the characteristic indole UV absorption at 440 nm. The N,O-dealkylation metabolite has been confirmed via nuclear magnetic resonance (NMR). […] The morpholinyl lactam metabolite is the product of oxygenation-dehydrogenation and has also been confirmed via NMR. The morpholinyl hemi-aminal metabolite is an unstable metabolite identified via an iminium-ion trapping experiment. Relative abundance was determined by UV response at 428 nm.
# [3] = Solid-state properties of the free base form; format: physicochemical
# [4] = Hygroscopicity by dynamic moisture sorption gravimetry (DMSG); format: physicochemical; conditions: for Water Uptake at 80% RH (wt. %): 25° C.
# Description: In one embodiment, the invention provides a non-hygroscopic salt of 5-[(Z)-(5-fluoro-2-oxo-1,2-dihydro-3H-indol-3-ylidene)methyl]-N-[(2S)-2-hydroxy-3-morpholin-4-ylpropyl]-2,4-dimethyl-1H-pyrrole-3-carboxamide. Hygroscopicity is determined by dynamic moisture sorption gravimetry (DMSG) using a controlled atmosphere microbalance at a temperature of 25° C. Samples are analyzed over a relative humidity range of from 0 to 90% in 3% steps. Each step is brought to equilibrium before moving to the next step, with equilibrium assessed as a weight change of less than 0.002 mg (0.02%) for five consecutive points at 1 point per 120 seconds.
# Several salts of 5-[(Z)-(5-fluoro-2-oxo-1,2-dihydro-3H-indol-3-ylidene)methyl]-N-[(2S)-2-hydroxy-3-morpholin-4-ylpropyl]-2,4-dimethyl-1H-pyrrole-3-carboxamide were produced and analyzed for hygroscopicity. Hygroscopicity was determined by dynamic moisture sorption gravimetry (DMSG) using a controlled atmosphere microbalance at a temperature of 25° C. Samples were analyzed over a relative humidity range of from 0 to 90% in 3% steps, in a humidity profile of […], where the initial value of 36% reflects the approximate initial equilibrated relative humidity (not specifically measured). Each step was brought to equilibrium before moving to the next step, with equilibrium assessed as a weight change of less than 0.001 mg (0.01%) or 0.002 mg (0.02%) for five consecutive points at 1 point per 120 seconds. The water uptake at 80% relative humidity (RH) was selected for comparison between the salts. The 80% RH values for each salt are shown in Table 5, and the right column of the table identifies the corresponding Figure showing the complete DMSG scan. A range of values given for the water uptake at 80% reflects hysteresis in the 0→90% and 90→0% scans.
# [5] = TGA of six-week stability samples; format: physicochemical
# Description: TGA measurements were performed using a TA Instruments model 2950 Hi-Res analyzer with a Thermal Analyst 5000 controller. Samples were placed onto a tared platinum hanging pan and heated to at least 165° C. at a rate of 10° C./min. Dry nitrogen was used as a purge gas.
# To determine the thermal stability and residual solvent content, the same samples were analyzed by DSC and TGA.
# [6] = Six-week stability study, HPLC chemical and enantiomeric stability, PXRD (Example 4); format: physicochemical; conditions: for Total Impurity (%): closed vial
# Description: A six-week stability study was carried out on samples of 5-[(Z)-(5-fluoro-2-oxo-1,2-dihydro-3H-indol-3-ylidene)methyl]-N-[(2S)-2-hydroxy-3-morpholin-4-ylpropyl]-2,4-dimethyl-1H-pyrrole-3-carboxamide maleate salt, polymorph Form 1. The compound was exposed for 6 weeks, closed vial, at three stability test conditions: 5° C., 25° C./60% relative humidity and 40° C./75% relative humidity, and analyzed for chemical and enantiomeric stability as described in Example 2, except that the HPLC instrument was an Agilent 1100 series.
# The percent recovery was calculated based on the average response factor obtained from a reference standard throughout the HPLC run, and considering the E isomer as the compound and not as an impurity. […] The isomerization is often an artifact of sample preparation and analysis. […] The values shown in the table are averages of several injections.
# [7] = 6-week sample stored at 25° C./60% RH
# [8] = 6-week sample stored at 40° C./75% RH
compound,measurement,setting,value
"Cc1[nH]c(/C=C2\C(=O)Nc3ccc(F)cc32)c(C)c1C(=O)NC[C@H](O)CN1CCOCC1 [mixed Form 1/Form 2, 5-[(Z)-(5-fluoro-2-oxo-1,2-dihydro-3H-indol-3-ylidene)methyl]-N-[(2S)-2-hydroxy-3-morpholin-4-ylpropyl]-2,4-dimethyl-1H-pyrrole-3-carboxamide]",crystal form changes in the PXRD pattern,[1]; 6 weeks,no crystal form changes were observed
"Cc1[nH]c(/C=C2\C(=O)Nc3ccc(F)cc32)c(C)c1C(=O)NC[C@H](O)CN1CCOCC1 [5-[(Z)-(5-fluoro-2-oxo-1,2-dihydro-3H-indol-3-ylidene)methyl]-N-[(2S)-2-hydroxy-3-morpholin-4-ylpropyl]-2,4-dimethyl-1H-pyrrole-3-carboxamide]",anti-tumor activity,[2],has anti-tumor activity
same,metabolism pathway,hepatic cytochrome P450,proceeds primarily through an oxidative pathway mediated by hepatic cytochrome P450
same,chemical and enantiomeric stability,[3],chemically and enantiomerically stable
same,hygroscopicity,[3],relatively non-hygroscopic
"Cc1[nH]c(/C=C2\C(=O)Nc3ccc(F)cc32)c(C)c1C(=O)NC[C@H](O)CN1CCOCC1 [L-malate, 5-[(Z)-(5-fluoro-2-oxo-1,2-dihydro-3H-indol-3-ylidene)methyl]-N-[(2S)-2-hydroxy-3-morpholin-4-ylpropyl]-2,4-dimethyl-1H-pyrrole-3-carboxamide]",Water Uptake at 80% RH (wt. %),"[4]; DMSG, 80% relative humidity",12–13 wt. %
"Cc1[nH]c(/C=C2\C(=O)Nc3ccc(F)cc32)c(C)c1C(=O)NC[C@H](O)CN1CCOCC1 [L-tartrate, 5-[(Z)-(5-fluoro-2-oxo-1,2-dihydro-3H-indol-3-ylidene)methyl]-N-[(2S)-2-hydroxy-3-morpholin-4-ylpropyl]-2,4-dimethyl-1H-pyrrole-3-carboxamide]",Water Uptake at 80% RH (wt. %),"[4]; DMSG, 80% relative humidity",9 wt. %
"Cc1[nH]c(/C=C2\C(=O)Nc3ccc(F)cc32)c(C)c1C(=O)NC[C@H](O)CN1CCOCC1 [Form 2, 5-[(Z)-(5-fluoro-2-oxo-1,2-dihydro-3H-indol-3-ylidene)methyl]-N-[(2S)-2-hydroxy-3-morpholin-4-ylpropyl]-2,4-dimethyl-1H-pyrrole-3-carboxamide]",Water Uptake at 80% RH (wt. %),"[4]; DMSG, 80% relative humidity, listed as Maleate",0.8 wt. %
same,crystal form changes in the PXRD pattern,[1]; 134 days,no crystal form changes were observed
"Cc1[nH]c(/C=C2\C(=O)Nc3ccc(F)cc32)c(C)c1C(=O)NC[C@H](O)CN1CCOCC1 [Form 1, 5-[(Z)-(5-fluoro-2-oxo-1,2-dihydro-3H-indol-3-ylidene)methyl]-N-[(2S)-2-hydroxy-3-morpholin-4-ylpropyl]-2,4-dimethyl-1H-pyrrole-3-carboxamide]",crystal form changes in the PXRD pattern,[1]; 163 days,no crystal form changes were observed
same,"TGA Wt. Loss (%), 25° C.–125° C.",[5]; 6-week sample stored at 5° C.,1.44%
same,"TGA Wt. Loss (%), 25° C.–275° C.",[5]; 6-week sample stored at 5° C.,23.15%
same,"TGA Wt. Loss (%), 25° C.–125° C.",[5]; [7],1.36%
same,"TGA Wt. Loss (%), 25° C.–275° C.",[5]; [7],24.36%
same,"TGA Wt. Loss (%), 25° C.–125° C.",[5]; [8],1.66%
same,"TGA Wt. Loss (%), 25° C.–275° C.",[5]; [8],20.61%
same,TGA significant weight loss at 207° C.,[5]; 6-week samples,21-23%
same,TGA weight loss between 25–125° C.,[5]; 6-week samples,less than 2%
same,crystalline changes by PXRD compared to a control sample,[6]; 6-week samples maintained at 40° C./75% RH,no crystalline changes
same,chiral transformation,"[6]; 6-week stability samples, any samples",no chiral transformation observed
same,Total Impurity (%),"[6]; 6 weeks, 5° C. ± 3° C.",1.67%
same,Total Impurity (%),"[6]; 6 weeks, 25° C. ± 2° C., 60% RH",1.85%
same,Total Impurity (%),"[6]; 6 weeks, 40° C. ± 2° C.C, 76% RH",1.86%
same,assay of the 6-week stability samples,[6]; all three stability conditions,97.1–98.5%
same,"Enantiomeric stability, amount of R isomer",[6]; samples held at 80° C. for 2 weeks,no increase in the amount of R isomer observed
same,stability,"[6]; under all stability conditions investigated, 6 weeks",stable
"Cc1[nH]c(/C=C2\C(=O)Nc3ccc(F)cc32)c(C)c1C(=O)NC[C@H](O)CN1CCOCC1 [initial maleate salt, 5-[(Z)-(5-fluoro-2-oxo-1,2-dihydro-3H-indol-3-ylidene)methyl]-N-[(2S)-2-hydroxy-3-morpholin-4-ylpropyl]-2,4-dimethyl-1H-pyrrole-3-carboxamide]",moisture uptake,[4]; 80% relative humidity,about 9%
same,hygroscopicity,[4]; DMSG,hygroscopic
"Cc1[nH]c(/C=C2\C(=O)Nc3ccc(F)cc32)c(C)c1C(=O)NC[C@H](O)CN1CCOCC1 [HCl, form 1, 5-[(Z)-(5-fluoro-2-oxo-1,2-dihydro-3H-indol-3-ylidene)methyl]-N-[(2S)-2-hydroxy-3-morpholin-4-ylpropyl]-2,4-dimethyl-1H-pyrrole-3-carboxamide]",Water Uptake at 80% RH (wt. %),"[4]; DMSG, 80% relative humidity",3–20 wt. %
same,hysteresis of sorption profile,"[4]; DMSG, listed as hydrochloride salt",significant hysteresis
"Cc1[nH]c(/C=C2\C(=O)Nc3ccc(F)cc32)c(C)c1C(=O)NC[C@H](O)CN1CCOCC1 [Tosylate, 5-[(Z)-(5-fluoro-2-oxo-1,2-dihydro-3H-indol-3-ylidene)methyl]-N-[(2S)-2-hydroxy-3-morpholin-4-ylpropyl]-2,4-dimethyl-1H-pyrrole-3-carboxamide]",Water Uptake at 80% RH (wt. %),"[4]; DMSG, 80% relative humidity",7 wt. %
same,Uptake of water,[4]; at about 65% relative humidity,about 2.5%

# From patent US7247627B2, “Salts and polymorphs of a pyrrole-substituted indolinone compound” (Pharmacia & Upjohn Company, priority 2003, dated 2007)
